Results on eight compounds are retold here after publication PMC7593722, “UPLC-MS/MS Method for the Simultaneous Quantification of Eight Compounds in Rat Plasma and Its Application to a Pharmacokinetic Study after Oral Administration of Veratrum (Veratrum nigrum L.) Extract” (BioMed Research International, 2020).

The data set can be described thus: in vivo. Conditions: for Detection in rat plasma after dosing: no complete pharmacokinetic curve; for Tmax: T max. The procedure:
0.1% formic acid in water (A) and acetonitrile (B) were used as mobile phases with the following gradient elution method: 0-2 min, 15%-25% B; 2-4 min, 25%-50% B; 4-6 min, 50%-90% B; and 6-7 min, 90%-95% B. The separation was performed on a Waters ACQUITY UPLC® CSHTM Phenyl-Hexyl (2.1 × 100 mm, 1.7 μm) column, and the temperature was maintained at 20°C. The flow rate and injection volume were 0.3 mL/min and 5 μL, respectively.
100 μL plasma sample was incorporated with 20 μL methanol and 20 μL of IS (20 ng/mL), and vortexed for 30 seconds. 1 mL ethyl acetate was then added to the sample and vortex-mixed for 3 min. […] The obtained residue was reconstituted in 100 μL methanol and centrifugation at 12000 × g for 10 min. 5 μL of the supernatant was injected for UPLC-MS/MS measurement.
Six male Sprague-Dawley rats (body weight, 220 ± 10 g) were used for this experiment. […] 0.5% CMC-Na aqueous solution was used to dissolve the Veratrum nigrum L. extract to a concentration of 0.2 g/mL suspension. […] After centrifugation at 4000 × g for 10 min at 4°C, the collected plasma was transferred into clean tubes and frozen at -80°C until next analysis. Pharmacokinetic parameters were calculated using “Drug and Statistics 3.0” (DAS 3.0) (Medical College of Wannan, China). The animal protocol was approved by the Animal Ethics Committee of Tianjin University of Traditional Chinese Medicine (TCM-LAEC20190060).
Some important pharmacokinetic parameters were calculated in this study including Cmax, the maximum plasma concentration and time to reach Cmax of each compound (Tmax). The T1/2 was the elimination half-life and it reflects the elimination rate of the drug in the body. The area under the plasma concentration-time curve AUC(0 − t) was calculated using the trapezoidal rule and extrapolated to infinity for AUC(0 − ∞). The mean residence time (MRT) of these ingredients was also investigated.

Setting [1] is: oral Veratrum nigrum L. extract 2 g/kg.
[2] abbreviates: male, Sprague-Dawley, rat, in vivo, po, 2 g/kg.
Setting [3] is: male, Sprague-Dawley, rat, in vivo, po, 2 g/kg, male Sprague-Dawley rats, oral Veratrum nigrum L. extract 2 g/kg, plasma, n = 6, mean ± SD.

On to `O=c1c(O)c(-c2ccc(O)c(O)c2)oc2cc(O)cc(O)c12` [Quercetin, quercetin], for which, under setting [1], the “Detection in rat plasma after dosing” value is recorded as “only detected at the first few plasma sampling points”.
What is called AUC(0-inf) is total exposure, with the tail of the curve extrapolated. High values mean more exposure, low ones less exposure. By AUC(0-t) is commonly meant exposure summed from dosing to a finite time, without extrapolation to infinity. For orientation: Cmax means the maximum level reached in the sampled fluid or tissue. For orientation: MRT means a mean duration of stay, worked out from the concentration-time curve. What is called MRT inf is the average time that molecules of a dose stay in the body. The half-life is how long it takes for the measured level to halve. A word on the Tmax: it is the time from dosing to the highest level. `Cc1c([C@H](C)[C@@H]2NC[C@@H](C)C[C@H]2O)ccc2c1C[C@H]1[C@H]2CC=C2C[C@@H](O)CC[C@@]21C` [Veratramine, veratramine]: under setting [2], the area under the curve AUC(0-inf) amounted to 8000 ± 2330 ng·h/mL, the AUC(0-t) is 7980 ± 2330 ng·h/mL, the Cmax worked out at 193 ± 76.5 ng/mL and the mean residence time MRT turned out to be 38.8 ± 5.83 h. Besides, under setting [2], the mean residence time MRT inf was determined as 39 ± 5.91 h, the T max is on record as 34.08 ± 23.14 h, the half-life was 849 ± 391 min and the time to peak (Tmax) is over 1920 min.
Under setting [2], `OC[C@H]1O[C@@H](Oc2cc(O)cc(/C=C/c3ccc(O)cc3)c2)[C@H](O)[C@@H](O)[C@@H]1O` [Polydatin, polydatin] showed an AUC(0-inf) of 71.2 ± 13.9 ng·h/mL, an area under the curve AUC(0-t) of 60.4 ± 18.1 ng·h/mL, a peak concentration (Cmax) of 27.1 ± 24 ng/mL and an MRT of 13.2 ± 2.98 h. Moreover, under setting [2], the MRT inf came out at 16.5 ± 13.7 h and the half-life was 864 ± 633 min. Besides, under setting [3], the Tmax was determined as 15.6 ± 17.4 min.
Consider `CC1=C2C[C@H]3[C@@H](CC=C4C[C@@H](O)CC[C@@]43C)[C@@H]2CC[C@]12O[C@@H]1C[C@H](C)CN[C@H]1[C@H]2C` [Cyclopamine, cyclopamine], for which the “Detection in rat plasma after dosing” value under setting [1] was “only detected at the first few plasma sampling points”.
Same read-out and setting: in the case of `O=c1cc(-c2ccc(O)cc2)oc2cc(O)cc(O)c12` [Apigenin, apigenin] it was “only detected at the first few plasma sampling points”.
In turn, `CC1=C2C(=O)[C@H]3[C@@H](CC=C4C[C@@H](O)CC[C@@]43C)[C@@H]2CC[C@]12O[C@@H]1C[C@H](C)CN[C@H]1[C@H]2C` [Jervine, jervine] gave a T max (male Sprague-Dawley rats, oral Veratrum nigrum L. extract 2 g/kg, plasma, n = 6, mean ± SD) of 32.00 ± 6.20 h. Under setting [2], this compound displayed a total exposure AUC(0-inf) of 22700 ± 9430 ng·h/mL, an area under the curve AUC(0-t) of 22600 ± 9390 ng·h/mL, a peak concentration (Cmax) of 515 ± 242 ng/mL and a mean residence time MRT of 38.8 ± 5.58 h. Under setting [2], the MRT inf was determined as 39.1 ± 5.53 h and the half-life is 814 ± 81.6 min. Under setting [3], the time to peak (Tmax) was over 1920 min.
With `Cc1c([C@H](C)[C@@H]2NC[C@@H](C)C[C@H]2O)ccc2c1C[C@H]1[C@H]2CC=C2C[C@@H](O[C@@H]3O[C@H](CO)[C@@H](O)[C@H](O)[C@H]3O)CC[C@@]21C` [Veratrosine, veratrosine], under setting [2], the AUC(0-inf) was found to be 421 ± 199 ng·h/mL, the AUC(0-t) was 410 ± 183 ng·h/mL, the maximum concentration (Cmax) came to 237 ± 155 ng/mL and the MRT is 10.5 ± 6.9 h. Under setting [2], the MRT inf was determined as 11.3 ± 7.68 h and the half-life is 689 ± 422 min. Further, under setting [3], the time of peak concentration (Tmax) was found to be 4.8 min.
As for `Oc1ccc(/C=C/c2cc(O)cc(O)c2)cc1` [Resveratrol, resveratrol], under setting [2], the AUC(0-inf) came out at 101 ± 51.5 ng·h/mL, the AUC(0-t) amounted to 89.7 ± 49.3 ng·h/mL, the peak level (Cmax) was 45 ± 39.5 ng/mL and the MRT was found to be 13.2 ± 7.77 h. Under setting [2], the MRT inf was 19 ± 15.5 h and the half-life is 134 ± 66.6 min. Moreover, under setting [3], the Tmax amounted to 10.8 ± 10.2 min.
